The values below come from ChEMBL document CHEMBL1136260, “[18F]FMDAA1106 and [18F]FEDAA1106: two positron-emitter labeled ligands for peripheral benzodiazepine receptor (PBR)” (Bioorg Med Chem Lett, 2003).

Data set [1] is described as follows: Partition coefficient (logP). It is filed as physicochemical. The note with it: octanol/water.
The target of data set [2] is GABA-A receptor; anion channel. In words: In vitro displacement of [11C]Flumazenil from (CBR) central GABA-A benzodiazepine receptor of rat brain. (In a radioligand displacement assay an active substance lowers the binding of a labelled ligand.)
The target of a further data set is Translocator protein (Rattus norvegicus, UniProt P16257). In words: In vitro binding affinity for PBR (peripheral benzodiazepine receptor) in rat brain. It is filed as tissue-based.
Sequence of Translocator protein (P16257 whole entry, looked up): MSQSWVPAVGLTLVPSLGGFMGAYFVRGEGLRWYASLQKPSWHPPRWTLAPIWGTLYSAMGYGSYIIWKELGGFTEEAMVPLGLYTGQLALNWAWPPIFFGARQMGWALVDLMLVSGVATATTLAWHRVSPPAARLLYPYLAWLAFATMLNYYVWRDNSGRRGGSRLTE

By logP is commonly meant the decadic logarithm of the partition coefficient of the neutral form, usually between octanol and water. One may read the IC50 as the concentration that gives 50% inhibition. A low value points to higher potency. In data set [1], `COc1ccc(OCF)c(CN(C(C)=O)c2cc(F)ccc2Oc2ccccc2)c1` registered a logP of 3.7. In data set [2], the IC50 is > 10 µM.

Usually Ki stands for the dissociation constant of the complex between target and ligand, obtained from inhibition or displacement. A high value points to lower affinity. On to `COc1ccc(OC)c(CN(C(C)=O)c2cc(F)ccc2Oc2ccccc2)c1`, for which the affinity on Translocator protein, expressed as Ki, was 0.043 nM. The logP in data set [1] was determined as 3.65. In data set [2], the IC50 was > 10 µM.

Consider `COc1ccc(OCCF)c(CN(C(C)=O)c2cc(F)ccc2Oc2ccccc2)c1`, for which the logP in data set [1] is 3.81. Also, in data set [2], the IC50 is > 10 µM.

Take `CC[C@@H](C)N(C)C(=O)c1cc2ccccc2c(-c2ccccc2Cl)n1` [PK-11195]: the IC50 in data set [2] is > 10 µM.
